Assay results as given in patent publication US11052028B2, “Process for depigmenting keratin materials using thiopyridinone compounds” (L'OREAL, priority 2010, dated 2021).
Entries after “also recorded” stand apart in the source; their conditions may differ.

What was measured:
[1] = system: coculture of keratinocytes and melanocytes; assay: Cytotoxicity on coculture, estimated by leucine incorporation; format: cell-based
Description: (§1) The modulatory effect of each compound on melanogenesis was measured according to the method described in FR-A-2734825 and also in the article by R. Schmidt, P. Krien and M. Regnier, Anal. Bichem., 235(2), 113-18,1996. This test is carried out on a coculture of keratinocytes and melanocytes.
(§2) For the compounds tested, the following were determined: • the cytotoxicity, by estimating leucine incorporation, • the inhibitory activity on melanin synthesis, by estimating the ratio of thiouracil incorporation to leucine incorporation, relative to 100% of the control (the control corresponds to the test carried out without test compound). The IC50 values (concentration for which 50% of the melanin synthesis is inhibited) were determined.
(§3) The test was also carried out with arbutin, niacinamide and kojic acid, which are known depigmenting compounds.

[2] = system: coculture of keratinocytes and melanocytes; assay: Inhibitory activity on melanin synthesis (constitutive melanogenesis), ratio of thiouracil incorporation to leucine incorporation; format: cell-based; conditions: for IC50: read-out: IC50 (concentration for which 50% of the melanin synthesis is inhibited); for efficacy in inhibiting melanogenesis compared with known depigmenting compounds: conclusion in words from the coculture test
Description: as §1, §2, §3

[3] = ratio of thiouracil to leucine incorporation, relative to 100% of the control, coculture of keratinocytes and melanocytes

OC[C@H]1O[C@@H](Oc2ccc(O)cc2)[C@H](O)[C@@H](O)[C@@H]1O [Arbutin, reference compound]
Cytotoxicity on coculture [1]: Non-cytotoxic
IC50 [2, 3]: > 500 µM

CCNC(=O)c1ccc[nH]c1=S [Compound 2, N-ethyl-2-thioxo-1,2-dihydropyridine-3-carboxamide]
Cytotoxicity on coculture [1]: Non-cytotoxic
efficacy in inhibiting melanogenesis compared with known depigmenting compounds [2]: more effective than arbutin, kojic acid and niacinamide; also recorded: the most effective compound
IC50 [2, 3]: 4.9 µM

CCCCCNC(=O)c1ccc[nH]c1=S [Compound 7, N-pentyl-2-thioxo-1,2-dihydropyridine-3-carboxamide]
Cytotoxicity on coculture [1]: Non-cytotoxic
efficacy in inhibiting melanogenesis compared with known depigmenting compounds [2]: more effective than arbutin, kojic acid and niacinamide
IC50 [2, 3]: 32 µM

O=C(NC1CCCCC1)c1ccc[nH]c1=S [Compound 12, N-cyclohexyl-2-thioxo-1,2-dihydropyridine-3-carboxamide]
Cytotoxicity on coculture [1]: Non-cytotoxic
efficacy in inhibiting melanogenesis compared with known depigmenting compounds [2]: more effective than arbutin, kojic acid and niacinamide
IC50 [2, 3]: 37 µM

COc1ccc(CCNC(=O)c2ccc[nH]c2=S)cc1 [Compound 16, N-[2-(4-methoxyphenyl)ethyl]-2-thioxo-1,2-dihydropyridine-3-carboxamide]
Cytotoxicity on coculture [1]: 100 µM
efficacy in inhibiting melanogenesis compared with known depigmenting compounds [2]: more effective than arbutin, kojic acid and niacinamide
IC50 [2, 3]: 25 µM

O=C(NCCO)c1ccc[nH]c1=S [Compound 19, N-(2-hydroxyethyl)-2-thioxo-1,2-dihydropyridine-3-carboxamide]
Cytotoxicity on coculture [1]: Non-cytotoxic
efficacy in inhibiting melanogenesis compared with known depigmenting compounds [2]: more effective than arbutin, kojic acid and niacinamide
IC50 [2, 3]: 410 µM

O=C(NCC(O)CO)c1ccc[nH]c1=S (stereo not drawn) [Compound 21, N-(2,3-dihydroxypropyl)-2-thioxo-1,2-dihydropyridine-3-carboxamide]
Cytotoxicity on coculture [1]: Non-cytotoxic
efficacy in inhibiting melanogenesis compared with known depigmenting compounds [2]: more effective than arbutin, kojic acid and niacinamide
IC50 [2, 3]: 128 µM

CCN(CC)C(=O)c1ccc[nH]c1=S [Compound 27, N,N-diethyl 2-mercaptonicotinamide]
Cytotoxicity on coculture [1]: Non-cytotoxic
efficacy in inhibiting melanogenesis compared with known depigmenting compounds [2]: more effective than arbutin, kojic acid and niacinamide
IC50 [2, 3]: 29 µM

O=c1cc(CO)occ1O [Kojic acid, reference compound]
Cytotoxicity on coculture [1]: 100 µM
IC50 [2, 3]: > 500 µM

NC(=O)c1cccnc1 [Niacinamide, reference compound]
Cytotoxicity on coculture [1]: Non-cytotoxic
IC50 (concentration for which 50% of the melanin synthesis is inhibited) [2, 3]: Not attained
